Assay results: PMC9007336, “Identification and molecular characterization of a novel non-specific lipid transfer protein (TdLTP2) from durum wheat” (PLoS ONE, 2022)

Biological target: T1, rTdLTP2 (Triticum turgidum, UniProt A0A446PDN1)
T1 construct: gene LTP2; mature protein expressed from pPICZalphaA in Pichia pastoris, non-tagged, gel filtration and RP-HPLC
Assay: hydrophobic ELISA plate coated with lipid, anti-LTP detection, one-site fit
Format: binding
Source text: hydrophobic ELISA plate coated with lipid, anti-LTP detection, one-site fit on rTdLTP2 | high kd values specifically for oleic, palmitic acids and for sterol (Fig 5B and 5C) | rTdLTP2 can bind a wide range of lipids as oleic, linoleic, stearic, and palmitic acids

T1 sequence (A0A446PDN1 entry or part of it): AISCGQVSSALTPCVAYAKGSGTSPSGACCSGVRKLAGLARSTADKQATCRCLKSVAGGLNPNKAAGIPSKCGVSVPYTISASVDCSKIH

Structure (SMILES): CCCCCCCCCCCCCCCC(=O)O [Palmitic acid]
- Kd: 310 nM

Structure (SMILES): CCCCCCCCCCCCCCCCCC(=O)O [stearic acid]
- Kd: 470 nM

Structure (SMILES): CCCCCCCC/C=C\CCCCCCCC(=O)O [oleic acid]
- Kd: 300 nM

Structure (SMILES): CC[C@H](CC[C@@H](C)[C@H]1CC[C@H]2[C@@H]3CC=C4C[C@@H](O)CC[C@]4(C)[C@H]3CC[C@]12C)C(C)C [B-sitosterol]
- Kd: 300 nM

Structure (SMILES): CCCCC/C=C\C/C=C\CCCCCCCC(=O)O [linoleic acid]
- Kd: 590 nM
